{
  "source": "ChEMBL document CHEMBL3779853",
  "about": "“Target β-catenin/CD44/Nanog axis in colon cancer cells by certain N'-(2-oxoindolin-3-ylidene)-2-(benzyloxy)benzohydrazides” (Bioorg Med Chem Lett, 2016)",
  "key": {"[1]": {"tested_on": "LoVo", "test": "Cytotoxicity against high CD44 expressing human LoVo cells after 48 hrs by WST-1 assay", "format": "functional, cell-based"}, "[2]": {"tested_on": "HT-29", "test": "Cytotoxicity against low CD44 expressing human HT-29 cells after 48 hrs by WST-1 assay", "format": "functional, cell-based"}, "[3]": {"test": "Cell cycle arrest in low CD44 expressing human […] cells assessed as accumulation at G2 phase at 5 to 10 uM", "format": "functional, cell-based"}, "[4]": {"test": "Cell cycle arrest in low CD44 expressing human […] cells assessed as accumulation at M phase at 5 to 10 uM", "format": "functional, cell-based"}, "[5]": {"test": "Inhibition of Wnt/beta catenin pathway (unknown origin) in human LoVo cells transfected with TCF/LEF reporter plasmid assessed as GFP expression at 2.5 uM after 48 hrs by flow cytometric analysis (reference value: 3.7%)", "format": "cell-based", "parameters": "scale not given: the % may be the effect or the level left"}, "[6]": {"test": "Inhibition of Wnt/beta catenin pathway assessed as downregulation of CD44-mediated Nanog expression in human LoVo cells at 2.5 to 10 uM after 48 hrs by RT-PCR analysis", "format": "cell-based"}, "[7]": {"test": "Cell cycle arrest in high CD44 expressing human […] cells assessed as accumulation at S phase at 5 to 10 uM", "format": "functional, cell-based"}, "[8]": {"tested_on": "LoVo", "test": "Downregulation of Sox2 expression in human LoVo cells at 10 uM after 48 hrs by RT-PCR analysis", "format": "functional, cell-based"}, "[9]": {"test": "Inhibition of Wnt/beta catenin pathway (unknown origin) in human LoVo cells transfected with TCF/LEF reporter plasmid assessed as GFP expression at 10 uM after 48 hrs by flow cytometric analysis (reference value: 3.7%)", "format": "cell-based", "parameters": "scale not given: the % may be the effect or the level left"}, "[10]": {"test": "Cell cycle arrest in high CD44 expressing human […] cells assessed as accumulation at M phase at 5 to 10 uM", "format": "functional, cell-based"}, "[11]": {"test": "Inhibition of Wnt/beta catenin pathway (unknown origin) in human LoVo cells transfected with TCF/LEF reporter plasmid assessed as GFP expression at 5 uM after 48 hrs by flow cytometric analysis (reference value: 3.7%)", "format": "cell-based", "parameters": "scale not given: the % may be the effect or the level left"}, "[12]": {"test": "Cell cycle arrest in low CD44 expressing human […] cells assessed as accumulation at S phase at 5 to 10 uM", "format": "functional, cell-based"}, "[13]": {"test": "Cell cycle arrest in high CD44 expressing human […] cells assessed as accumulation at G2 phase at 5 to 10 uM", "format": "functional, cell-based"}, "[14]": {"tested_on": "LoVo", "test": "Downregulation of Oct-4 expression in human LoVo cells at 10 uM after 48 hrs by RT-PCR analysis", "format": "functional, cell-based"}, "[15]": {"target": "T1, TCF4-CTNNB1 complex (Homo sapiens, UniProt P35222+Q9NQB0)", "T1 sequence (P35222 whole entry)": "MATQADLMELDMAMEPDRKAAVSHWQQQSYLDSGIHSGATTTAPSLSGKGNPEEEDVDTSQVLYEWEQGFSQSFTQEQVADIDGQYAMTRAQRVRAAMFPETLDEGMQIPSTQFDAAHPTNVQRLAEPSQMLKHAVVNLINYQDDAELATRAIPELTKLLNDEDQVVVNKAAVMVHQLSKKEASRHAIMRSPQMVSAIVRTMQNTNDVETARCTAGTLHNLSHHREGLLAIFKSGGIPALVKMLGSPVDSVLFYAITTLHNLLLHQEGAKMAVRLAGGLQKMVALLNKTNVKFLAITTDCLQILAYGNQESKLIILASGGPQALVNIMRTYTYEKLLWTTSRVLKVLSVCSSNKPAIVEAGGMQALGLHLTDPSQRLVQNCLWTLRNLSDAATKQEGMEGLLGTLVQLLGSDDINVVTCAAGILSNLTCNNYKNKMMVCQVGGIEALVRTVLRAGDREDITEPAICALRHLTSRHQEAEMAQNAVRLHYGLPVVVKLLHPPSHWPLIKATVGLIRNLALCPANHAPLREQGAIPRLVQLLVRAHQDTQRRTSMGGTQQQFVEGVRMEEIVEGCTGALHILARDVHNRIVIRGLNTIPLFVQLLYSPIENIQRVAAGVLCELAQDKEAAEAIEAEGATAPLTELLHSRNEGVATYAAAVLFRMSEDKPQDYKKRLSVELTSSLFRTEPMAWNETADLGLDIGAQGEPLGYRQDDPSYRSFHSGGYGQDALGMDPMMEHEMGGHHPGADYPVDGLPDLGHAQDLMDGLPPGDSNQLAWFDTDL", "T1 sequence (P15884 whole entry)": "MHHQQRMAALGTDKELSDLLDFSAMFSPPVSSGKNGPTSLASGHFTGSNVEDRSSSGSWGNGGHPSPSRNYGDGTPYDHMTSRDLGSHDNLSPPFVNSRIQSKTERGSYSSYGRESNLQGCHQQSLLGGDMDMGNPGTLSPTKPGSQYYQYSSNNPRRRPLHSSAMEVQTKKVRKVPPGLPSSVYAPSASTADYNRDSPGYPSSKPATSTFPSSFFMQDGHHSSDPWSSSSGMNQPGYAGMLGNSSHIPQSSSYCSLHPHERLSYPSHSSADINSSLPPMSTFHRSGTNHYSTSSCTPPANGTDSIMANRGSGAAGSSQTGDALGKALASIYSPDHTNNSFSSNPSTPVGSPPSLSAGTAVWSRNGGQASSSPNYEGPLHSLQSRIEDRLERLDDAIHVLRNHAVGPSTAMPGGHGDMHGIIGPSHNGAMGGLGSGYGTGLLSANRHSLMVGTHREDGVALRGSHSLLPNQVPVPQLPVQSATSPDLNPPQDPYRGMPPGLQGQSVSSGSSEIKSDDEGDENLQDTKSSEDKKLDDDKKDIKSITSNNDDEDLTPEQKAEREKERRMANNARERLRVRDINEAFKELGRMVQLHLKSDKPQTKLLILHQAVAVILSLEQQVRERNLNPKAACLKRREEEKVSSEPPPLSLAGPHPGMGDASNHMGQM", "test": "Inhibition of human GST tagged Tcf4/beta catenin interaction after 2 hrs using fluorescent AP Attophos substrate by ELISA analysis", "format": "protein-complex assay"}, "[16]": {"conditions": "Homo sapiens, HT-29, 48 h, read-out: IC50"}},
  "note": "Active and inactive are the calls of the source. The rule behind the calls is not given here.",
  "data": [
    {"compound": "O=C(N/N=C1\\C(=O)N(CN2CCOCC2)c2ccccc21)c1ccccc1OCc1ccccc1", "values": [
      {"measurement": "IC50", "setting": "[1]", "result": 16.3, "unit": "µM"},
      {"measurement": "IC50", "setting": "[2]; ht-29", "result": "Not Active"}
    ]},
    {"compound": "CN(Cc1ccccc1)CN1C(=O)/C(=N\\NC(=O)c2ccccc2OCc2ccccc2)c2ccccc21", "values": [
      {"measurement": "Activity", "setting": "[3]", "result": "inactive"},
      {"measurement": "Activity", "setting": "[4]", "result": "inactive"},
      {"measurement": "Activity", "setting": "[5]", "result": 2.2, "unit": "%"},
      {"measurement": "Activity", "setting": "[6]", "result": "Dose-dependent effect"},
      {"measurement": "Activity", "setting": "[7]", "result": "Active"},
      {"measurement": "Activity", "setting": "[8]", "result": "inactive"},
      {"measurement": "IC50", "setting": "[1]", "result": 24.9, "unit": "µM"},
      {"measurement": "Activity", "setting": "[9]", "result": 1.7, "unit": "%"},
      {"measurement": "Activity", "setting": "[10]", "result": "Active"},
      {"measurement": "Activity", "setting": "[11]", "result": 2, "unit": "%"},
      {"measurement": "Activity", "setting": "[12]", "result": "inactive"},
      {"measurement": "Activity", "setting": "[13]", "result": "Active"},
      {"measurement": "Activity", "setting": "[14]", "result": "inactive"},
      {"measurement": "IC50", "setting": "[2]; ht-29", "result": "Not Active"}
    ]},
    {"compound": "CCN(CC)CN1C(=O)/C(=N\\NC(=O)c2ccccc2OCc2ccccc2)c2ccccc21", "values": [
      {"measurement": "IC50", "setting": "[1]", "result": 14.8, "unit": "µM"},
      {"measurement": "IC50", "setting": "[2]; [16]", "result": 84.8, "unit": "µM"}
    ]},
    {"compound": "CCCN(CCC)CN1C(=O)/C(=N\\NC(=O)c2ccccc2OCc2ccccc2)c2ccccc21", "values": [
      {"measurement": "IC50", "setting": "[1]", "result": 19.8, "unit": "µM"},
      {"measurement": "IC50", "setting": "[2]; [16]", "result": 95.5, "unit": "µM"}
    ]},
    {"compound": "COc1c(CC(C)OC(=O)c2c(C)cc(O)cc2O)c2c3c(CC(C)OC(=O)c4c(C)cc(O)cc4O)c(OC)c(=O)c4c(O)cc(OC)c(c5c(OC)cc(O)c(c1=O)c52)c43", "note": "(centres undefined)", "values": [
      {"measurement": "IC50", "setting": "[15]", "result": 4.1, "unit": "µM"}
    ]},
    {"compound": "COC(=O)c1c(C)cc2c(c1O)[C@@]1(O)C(=O)c3cc4c(c(O)c3C(=O)[C@]1(OC)[C@H](O)C2)C(=O)C=C(NC1O[C@H](C)[C@@H](OC)[C@H](O)[C@@H]1OC)C4=O", "note": "(some centres undefined)", "values": [
      {"measurement": "IC50", "setting": "[15]", "result": 0.64, "unit": "µM"}
    ]},
    {"compound": "CN(Cc1ccccc1)CN1C(=O)/C(=N\\NC(=O)c2ccccc2OCc2ccc(Cl)cc2)c2ccccc21", "values": [
      {"measurement": "IC50", "setting": "[1]", "result": 17.2, "unit": "µM"},
      {"measurement": "IC50", "setting": "[2]; ht-29", "result": "Not Active"}
    ]},
    {"compound": "CCCCN(CCCC)CN1C(=O)/C(=N\\NC(=O)c2ccccc2OCc2ccccc2)c2ccccc21", "values": [
      {"measurement": "IC50", "setting": "[1]", "result": 27.2, "unit": "µM"},
      {"measurement": "IC50", "setting": "[2]; [16]", "result": 203, "unit": "µM"}
    ]},
    {"compound": "CCCC(=O)c1cc2c(c(O)c1C)C(=O)C(=O)c1c(O)cccc1-2", "values": [
      {"measurement": "IC50", "setting": "[15]", "result": 2.4, "unit": "µM"}
    ]},
    {"compound": "O=C(N/N=C1\\C(=O)N(CN2CCCCC2)c2ccccc21)c1ccccc1OCc1ccccc1", "values": [
      {"measurement": "IC50", "setting": "[1]", "result": 22.4, "unit": "µM"},
      {"measurement": "IC50", "setting": "[2]; ht-29", "result": "Not Active"}
    ]},
    {"compound": "COc1c(CC(C)OC(=O)Oc2ccc(O)cc2)c2c3c(CC(C)OC(=O)c4ccccc4)c(OC)c(=O)c4c(O)cc(OC)c(c5c(OC)cc(O)c(c1=O)c52)c43", "note": "(centres undefined)", "values": [
      {"measurement": "IC50", "setting": "[15]", "result": 3.2, "unit": "µM"}
    ]},
    {"compound": "CN(C)CN1C(=O)/C(=N\\NC(=O)c2ccccc2OCc2ccccc2)c2ccccc21", "values": [
      {"measurement": "IC50", "setting": "[1]", "result": 12.9, "unit": "µM"},
      {"measurement": "IC50", "setting": "[2]; [16]", "result": 48.8, "unit": "µM"}
    ]},
    {"compound": "CN(CCO)CN1C(=O)/C(=N\\NC(=O)c2ccccc2OCc2ccccc2)c2ccccc21", "values": [
      {"measurement": "IC50", "setting": "[1]", "result": 22.4, "unit": "µM"},
      {"measurement": "IC50", "setting": "[2]; ht-29", "result": "Not Active"}
    ]}
  ]
}
